Data from PubChem BioAssay AID1963853 (Molecular Pharmacology Branch, DTP, NCI, 2024).

System: 266295-075-R-J1-PDC spheroid viability
Test: Anticancer human tumor 266295-075-R-J1-PDC patient-derived head and neck squamous carcinoma cell line growth inhibition [POLQ]
Details: spheroids with HUVEC and MSC; for viability, T/C: stronger effect = lower value
Experimental: Multicellular complex tumor spheroid response to Polymerase (POL) inhibitors (novobiocin, ART-558, RP6685) in combination with a variety of drugs and investigational agents in selected tumor cell lines
The POL inhibitors (novobiocin, ART-558, and RP6685) were evaluated both individually and in combination with standard of care and investigational anticancer small molecules within a complex spheroid model of solid tumors. . Complex spheroids include a stromal component modeled by human endothelial cells (HUVEC) and fibroblasts modeled by human mesenchymal stem cells (MSCs). The concentration ranges selected for each drug and investigational agent were based upon clinically achievable concentrations if the clinical Cmax of the agent was known.
Compounds. The drugs and investigational agents: novobiocin (NSC847541), ART-558 (NSC835418), RP-6685 (NSC848927), peposertib (NSC802822), ceralasertib (NSC780249), elimusertib (NSC800525), camonsertib (NSC841442), AZD-1390 (NSC803789), olaparib (NSC753686), talazoparib (NSC767125), rucaparib (NSC756644), sotorasib (NSC818433), MRTX-1133 (NSC836407), SN-38 (NSC673596), topotecan (NSC609699), epotoside (NSC141540), doxorubicin (NSC123127), gemcitabine (NSC613327), 5-fluorouracil (NSC19893), paclitaxel (NSC125973), vemurafenib (NSC761431), MSA-2 (NSC828583), SN-011 (NSC837082), adavosertib (NSC754352), prexasertib (NSC758257), carboplatin (NSC241240) and oxaliplatin (NSC266046), were obtained from the National Cancer Institute (NCI) Developmental Therapeutics Program Chemical Repository (21). The FDA-approved anticancer drug set is available from the Developmental Therapeutics Program at https://dtp.cancer.gov/organization/dscb/obtaining/. […] The stock solutions were prepared in dimethyl sulfoxide (DMSO, Sigma-Aldrich, St. Louis, MO, cat. D2650), except for the platinum compounds which were prepared in saline (Quality Biological, Gaithersburg, MD, cat. 114-055-101), at 800-fold the tested concentration and stored at -70 degrees C prior to their use. All drugs and investigational agents were tested over a range starting from a high concentration at or near the clinical Cmax and decreasing in half-log increments. If the clinical Cmax for an agent had not been determined, the highest concentration tested was 10 microM, except for SN-38, which was tested at a high concentration of 1 microM.
Cell Culture. All cells were maintained in an incubator at 37 degrees C and 5% CO2 with 95% humidity. The PDC lines were cultured according to standard operating procedures established by the NCI PDMR (https://pdmr.cancer.gov). Table 3 of the manuscript, lists the cell lines along with the number of the three cell types plated to form the mct-spheroids and media for tumor cell growth. After thawing, all PDC lines, except 997537-175-T-J1-PDC and 415267-285-R-J2-PDC, were cultured in Matrigel-coated flasks prepared with a working solution of 1X Ham's F-12 nutrient mix, without supplementation (Thermo Fisher Scientific, cat. 11765054), 100 U/mL penicillin-streptomycin (Thermo Fisher Scientific, cat. 15140122), and 2.5% Matrigel (Corning Inc., Corning, NY, cat. 354248) for the first three passages. The two PDC lines 997537-175-T-J1-PDC and 415267-285-R-J2-PDC were cultured on uncoated flasks. The 857933-349-R-J2-PDC line was cultured in 6C/Colon 1B media containing advanced DMEM/F-12 (Thermo Fisher Scientific, cat. 12634028), 10 mM HEPES (Thermo Fisher Scientific, cat. 15630080), 1X GlutaMAX supplement (Thermo Fisher Scientific, cat. 35050061), 0.1 mg/mL primocin (InvivoGen, San Diego, CA, cat. ant-pm-2), 10% defined fetal bovine serum, heat inactivated (HyClone Laboratories Inc., Logan, UT, cat. SH30070.03HI), 50% L-WRN conditioned media (ATCC, cat. CRL-3276), 1.25 mM N-Acetyl-L-cysteine (Sigma-Aldrich, cat. A9165), 10 mM nicotinamide (Sigma-Aldrich, cat. N0636), 1X B-27 supplement (Thermo Fisher Scientific, cat. 17504044), 1X N-2 supplement (Thermo Fisher Scientific, cat. […]

[1] = curve of first compound, second compound 0.0316 µM
[2] = curve of first compound, second compound 0.1 µM
[3] = curve of first compound, second compound 0.316 µM
[4] = curve of first compound, second compound 1 µM
[5] = curve of first compound, second compound 3.16 µM
[6] = curve of first compound, second compound 10 µM
[7] = second compound 0.0316 µM, first compound 0.00316 µM
[8] = second compound 0.0316 µM, first compound 0.01 µM
[9] = second compound 0.0316 µM, first compound 0.0316 µM
[10] = second compound 0.0316 µM, first compound 0.1 µM
[11] = second compound 0.1 µM, first compound 0.00316 µM
[12] = second compound 0.1 µM, first compound 0.01 µM
[13] = second compound 0.1 µM, first compound 0.0316 µM
[14] = second compound 0.1 µM, first compound 0.1 µM
[15] = second compound 0.316 µM, first compound 0.00316 µM
[16] = second compound 0.316 µM, first compound 0.01 µM
[17] = second compound 0.316 µM, first compound 0.0316 µM
[18] = second compound 0.316 µM, first compound 0.1 µM
[19] = second compound 1 µM, first compound 0.00316 µM
[20] = second compound 1 µM, first compound 0.01 µM
[21] = second compound 1 µM, first compound 0.0316 µM
[22] = second compound 1 µM, first compound 0.1 µM
[23] = second compound 3.16 µM, first compound 0.00316 µM
[24] = second compound 3.16 µM, first compound 0.01 µM
[25] = second compound 3.16 µM, first compound 0.0316 µM
[26] = second compound 3.16 µM, first compound 0.1 µM
[27] = second compound 10 µM, first compound 0.00316 µM
[28] = second compound 10 µM, first compound 0.01 µM
[29] = second compound 10 µM, first compound 0.0316 µM
[30] = second compound 10 µM, first compound 0.1 µM
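Further: spheroids exposed to compounds for seven days before readout.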

Cc1cccc(N(C)C(=O)C2C(O)CCN2c2nc(C)cc(C(F)(F)F)c2C#N)c1 (stereo unspecified)
IC50 (compound alone, run of 10/31/2023): > 10000 nM
IC50 (compound alone, run of 11/06/2023): > 10000 nM

Cn1ncnc1[C@H]1c2n[nH]c(=O)c3cc(F)cc(c23)N[C@@H]1c1ccc(F)cc1 + COC1C(OC(N)=O)C(O)C(Oc2ccc3c(O)c(NC(=O)c4ccc(O)c(CC=C(C)C)c4)c(=O)oc3c2C)OC1(C)C
IC50 [1]: > 100 nM
IC50 [2]: > 100 nM
IC50 [3]: > 100 nM
IC50 [4]: > 100 nM
IC50 [5]: > 100 nM
IC50 [6]: > 100 nM
viability, T/C (second compound 0.0316 µM, first compound 0.000316 µM): 85%
viability, T/C (second compound 0.0316 µM, first compound 0.001 µM): 97.4%
viability, T/C [7]: 93%
viability, T/C [8]: 99.9%
viability, T/C [9]: 85.9%
viability, T/C [10]: 97.1%
viability, T/C (second compound 0.1 µM, first compound 0.000316 µM): 97.9%
viability, T/C (second compound 0.1 µM, first compound 0.001 µM): 92.7%
viability, T/C [11]: 70.2%
viability, T/C [12]: 98.5%
viability, T/C [13]: 93.4%
viability, T/C [14]: 79.9%
viability, T/C (second compound 0.316 µM, first compound 0.000316 µM): 106%
viability, T/C (second compound 0.316 µM, first compound 0.001 µM): 87.5%
viability, T/C [15]: 97.6%
viability, T/C [16]: 103%
viability, T/C [17]: 86%
viability, T/C [18]: 83.2%
viability, T/C (second compound 1 µM, first compound 0.000316 µM): 97.2%
viability, T/C (second compound 1 µM, first compound 0.001 µM): 86.3%
viability, T/C [19]: 88.6%
viability, T/C [20]: 83.7%
viability, T/C [21]: 93.4%
viability, T/C [22]: 78.9%
viability, T/C (second compound 3.16 µM, first compound 0.000316 µM): 86%
viability, T/C (second compound 3.16 µM, first compound 0.001 µM): 106%
viability, T/C [23]: 87.2%
viability, T/C [24]: 84.5%
viability, T/C [25]: 94.3%
viability, T/C [26]: 80.5%
viability, T/C (second compound 10 µM, first compound 0.000316 µM): 101%
viability, T/C (second compound 10 µM, first compound 0.001 µM): 80.8%
viability, T/C [27]: 86.9%
viability, T/C [28]: 104%
viability, T/C [29]: 88.7%
viability, T/C [30]: 83.2%

CCc1c2c(nc3ccc(O)cc13)-c1cc3c(c(=O)n1C2)COC(=O)[C@]3(O)CC + Cc1cccc(N(C)C(=O)C2C(O)CCN2c2nc(C)cc(C(F)(F)F)c2C#N)c1
IC50 [1]: > 1000 nM
IC50 [2]: > 1000 nM
IC50 [3]: > 1000 nM
IC50 [4]: > 1000 nM
IC50 [5]: > 1000 nM
IC50 [6]: > 1000 nM
viability, T/C [7]: 90.2%
viability, T/C [8]: 81.4%
viability, T/C [9]: 80.4%
viability, T/C [10]: 85.8%
viability, T/C (second compound 0.0316 µM, first compound 0.316 µM): 113%
viability, T/C (second compound 0.0316 µM, first compound 1 µM): 76.7%
viability, T/C [11]: 90.3%
viability, T/C [12]: 78.5%
viability, T/C [13]: 90.4%
viability, T/C [14]: 81.9%
viability, T/C (second compound 0.1 µM, first compound 0.316 µM): 110%
viability, T/C (second compound 0.1 µM, first compound 1 µM): 72.9%
viability, T/C [15]: 85.8%
viability, T/C [16]: 84.1%
viability, T/C [17]: 87.2%
viability, T/C [18]: 87%
viability, T/C (second compound 0.316 µM, first compound 0.316 µM): 92.5%
viability, T/C (second compound 0.316 µM, first compound 1 µM): 75.1%
viability, T/C [19]: 91.5%
viability, T/C [20]: 86.7%
viability, T/C [21]: 77%
viability, T/C [22]: 84.3%
viability, T/C (second compound 1 µM, first compound 0.316 µM): 92.7%
viability, T/C (second compound 1 µM, first compound 1 µM): 75.5%
viability, T/C [23]: 78.5%
viability, T/C [24]: 74.1%
viability, T/C [25]: 79.9%
viability, T/C [26]: 89%
viability, T/C (second compound 3.16 µM, first compound 0.316 µM): 107%
viability, T/C (second compound 3.16 µM, first compound 1 µM): 75.2%
viability, T/C [27]: 92.8%
viability, T/C [28]: 92%
viability, T/C [29]: 82.9%
viability, T/C [30]: 85.7%
viability, T/C (second compound 10 µM, first compound 0.316 µM): 87.8%
viability, T/C (second compound 10 µM, first compound 1 µM): 55.6%
